What was measured:
Experiment in all cases: relative viability (nuclei count vs DMSO), 5 days (fraction); higher = more cells survive
[1] = compound: C[C@@H](C(=O)N[C@@H](C1CCCCC1)C(=O)N2CCC[C@H]2C(=O)N[C@@H]3[C@@H](CC4=CC=CC=C34)OCC#CC#CCO[C@@H]5CC6=CC=CC=C6[C@@H]5NC(=O)[C@@H]7CCCN7C(=O)[C@H](C8CCCCC8)NC(=O)[C@H](C)NC)NC [AZD5582] + O=C(CCCCCCC(=O)Nc1ccccc1)NO [Vorinostat] (partner 1 µM)
Outline: (§1)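 Relative viability was taken as the ratio of nuclei in treated wells to nuclei in vehicle wells. Lung cancer cell lines in 1536-well plates received compounds by pin tool one day after seeding, either one drug alone or a fixed anchor-drug dose plus five library-drug doses (not always all listed) in √10 steps. Nuclei were counted on 4× images after 5 days of treatment, and values are medians of duplicate plates.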

[2] = compound: Cn1nnc2c(C(N)=O)ncn2c1=O [Temozolomide] + CCNC(=O)c1noc(-c2cc(C(C)C)c(O)cc2O)c1-c1ccc(CN2CCOCC2)cc1 [Luminespib] (partner 0.01 µM)
Outline: as §1

[3] = compound: Cn1nnc2c(C(N)=O)ncn2c1=O [Temozolomide] + C[C@]1(O)C[C@@H](c2nc(-c3ccc4ccc(-c5ccccc5)nc4c3)c3c(N)nccn32)C1 [Linsitinib] (partner 1 µM)
Outline: as §1

[4] = compound: Cn1nnc2c(C(N)=O)ncn2c1=O [Temozolomide] + O=C(c1cc(Cc2n[nH]c(=O)c3ccccc23)ccc1F)N1CCN(C(=O)C2CC2)CC1 [Olaparib] (partner 8 µM)
Outline: as §1

| Cell Line | relative viability ([1]; first compound 0.001581 µM) | relative viability ([1]; first compound 0.005 µM) | relative viability ([1]; first compound 0.01581 µM) | relative viability ([1]; first compound 0.05 µM) | relative viability ([2]; first compound 0.2 µM) | relative viability ([2]; first compound 0.6325 µM) | relative viability ([2]; first compound 2 µM) | relative viability ([2]; first compound 6.325 µM) | relative viability ([2]; first compound 20 µM) | relative viability ([3]; first compound 0.2 µM) | relative viability ([3]; first compound 0.6325 µM) | relative viability ([3]; first compound 2 µM) | relative viability ([3]; first compound 6.325 µM) | relative viability ([3]; first compound 20 µM) | relative viability ([4]; first compound 0.2 µM) | relative viability ([4]; first compound 0.6325 µM) | relative viability ([4]; first compound 2 µM) | relative viability ([4]; first compound 6.325 µM) | relative viability ([4]; first compound 20 µM) |
| --- | --- | --- | --- | --- | --- | --- | --- | --- | --- | --- | --- | --- | --- | --- | --- | --- | --- | --- | --- |
| NCI-H520 | 0.833 | 0.724 | 0.758 | 0.712 | 0.216 | 0.216 | 0.234 | 0.222 | 0.21 | 1.03 | 0.904 | 0.98 | 0.941 | 1.04 | 0.391 | 0.33 | 0.312 | 0.284 | 0.242 |
| NCI-H1734 | 0.754 | 0.85 | 0.889 | 0.877 | 0.285 | 0.183 | 0.237 | 0.201 | 0.194 | 0.824 | 0.811 | 0.986 | 0.865 | 0.845 | 0.708 | 0.586 | 0.577 | 0.614 | 0.373 |
| A-427 | 0.816 | 0.862 | 0.885 | 0.904 | 0.699 | 0.803 | 0.799 | 0.618 | 0.394 | 1.1 | 1.15 | 1.15 | 0.948 | 0.604 | 0.681 | 0.729 | 0.672 | 0.47 | 0.325 |
| NCI-H2023 | 0.508 | 0.725 | 0.627 | 0.643 | 1.04 | 0.85 | 0.874 | 0.675 | 0.691 | 0.567 | 0.7 | 0.665 | 0.712 | 0.662 | 0.539 | 0.444 | 0.463 | 0.373 | 0.26 |
| NCI-H1915 | 0.428 | 0.439 | 0.462 | 0.477 | 0.963 | 0.761 | 0.616 | 0.429 | 0.313 | 1.15 | 1.02 | 0.969 | 0.711 | 0.402 | 0.272 | 0.234 | 0.238 | 0.212 | 0.151 |
| LK-2 | 0.269 | 0.295 | 0.236 | 0.304 | 0.177 | 0.186 | 0.199 | 0.163 | 0.187 | 0.359 | 0.543 | 0.418 | 0.382 | 0.253 | 0.736 | 0.702 | 0.593 | 0.355 | 0.257 |
| NCI-H1755 | 0.775 | 0.863 | 0.688 | 0.88 | 0.176 | 0.5 | 0.435 | 0.387 | 0.304 | 1.01 | 0.98 | 1.04 | 1 | 0.801 | 0.905 | 0.85 | 0.926 | 0.829 | 0.568 |
| NCI-H650 | 0.316 | 0.305 | 0.308 | 0.619 | 0.607 | 0.898 | 0.816 | 0.739 | 0.846 | 1.08 | 0.893 | 1.05 | 0.735 | 0.83 | 0.387 | 0.39 | 0.358 | 0.274 | 0.202 |
| NCI-H441 | 0.723 | 0.708 | 0.889 | 0.921 | 0.333 | 0.515 | 0.331 | 0.306 | 0.368 | 0.651 | 0.601 | 0.548 | 0.451 | 0.529 | 0.7 | 0.569 | 0.603 | 0.527 | 0.337 |
| NCI-H3122 | 0.946 | 1.09 | 0.924 | 0.236 | 0.0795 | 0.105 | 0.125 | 0.0851 | 0.0839 | 0.963 | 1.02 | 1.02 | 0.985 | 0.98 | 0.631 | 0.533 | 0.654 | 0.51 | 0.334 |
| NCI-H1793 | 0.767 | 0.927 | 0.565 | 0.587 |  | 0.151 | 0.309 | 0.189 | 0.186 |  | 0.884 | 1.15 | 0.846 | 0.839 |  | 0.943 | 1.07 | 0.685 | 0.506 |
| COR-L 105 | 0.843 | 0.912 | 0.727 | 0.878 | 0.798 | 0.781 | 1.13 | 0.561 | 1.04 | 0.919 | 1.01 | 1.03 | 0.797 | 0.7 | 0.585 | 0.577 | 0.636 | 0.661 | 0.693 |
| NCI-H1993 | 0.725 | 0.888 | 0.795 | 1.03 | 0.856 | 0.783 | 0.764 | 0.75 | 0.824 | 0.725 | 0.727 | 0.698 | 0.744 | 0.708 | 0.913 | 1.34 | 1.2 | 0.94 | 0.836 |
| BEN | 0.53 | 0.568 | 0.591 | 0.555 | 0.323 | 0.323 | 0.462 | 0.233 | 0.228 | 0.752 | 0.941 | 0.997 | 0.781 | 0.707 | 0.891 | 1.05 | 1.21 | 0.736 | 0.401 |
| NCI-H2009 | 0.695 | 0.743 | 0.711 | 0.792 | 1.08 | 1.04 | 1.02 | 0.971 | 0.983 | 1.2 | 1.22 | 1.3 | 1.2 | 1.22 | 0.723 | 0.671 | 0.717 | 0.641 | 0.499 |
| NCI-H2228 | 0.81 | 0.702 | 0.667 | 0.645 | 0.125 | 0.162 | 0.104 | 0.149 | 0.137 | 0.794 | 0.705 | 0.693 | 0.636 | 0.822 | 0.95 | 0.671 | 0.363 | 0.697 | 0.479 |
| PC-14 | 0.636 | 0.881 | 0.406 | 0.687 | 0.143 | 0.151 | 0.167 | 0.244 | 0.144 | 0.96 | 0.942 | 0.984 | 0.871 | 0.837 | 0.279 | 0.371 | 0.228 | 0.171 | 0.153 |
| EKVX | 0.72 | 0.934 |  | 0.932 | 0.364 | 0.873 | 0.888 | 0.829 | 0.714 | 0.442 | 1.05 | 1.04 | 1.06 | 0.707 |  | 0.735 | 0.79 | 0.79 | 0.479 |
